Assay results taken from PMC3188562, “Hyperforin Inhibits Akt1 Kinase Activity and Promotes Caspase-Mediated Apoptosis Involving Bad and Noxa Activation in Human Myeloid Tumor Cells” (PLoS ONE, 2011).

Target: Akt1 (Homo sapiens, UniProt P31749)
Sequence (P31749 whole entry): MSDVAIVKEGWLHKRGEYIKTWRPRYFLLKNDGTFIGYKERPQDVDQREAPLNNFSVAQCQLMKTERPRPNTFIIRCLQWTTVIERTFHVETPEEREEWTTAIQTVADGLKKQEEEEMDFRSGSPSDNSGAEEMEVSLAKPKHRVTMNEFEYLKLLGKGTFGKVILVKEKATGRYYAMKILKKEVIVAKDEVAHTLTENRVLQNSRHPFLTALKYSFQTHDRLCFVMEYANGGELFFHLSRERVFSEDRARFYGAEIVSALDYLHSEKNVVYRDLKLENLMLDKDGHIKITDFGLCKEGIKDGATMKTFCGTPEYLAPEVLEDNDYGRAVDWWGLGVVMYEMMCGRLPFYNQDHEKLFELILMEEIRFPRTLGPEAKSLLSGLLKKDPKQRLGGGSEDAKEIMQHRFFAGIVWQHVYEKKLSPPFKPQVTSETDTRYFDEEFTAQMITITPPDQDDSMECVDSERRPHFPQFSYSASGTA

CC(C)=CCCC1(C)C(CC=C(C)C)CC2(CC=C(C)C)C(=O)C(CC=C(C)C)=C(O)C1(C(=O)C(C)C)C2=O (stereo not drawn) [HF, 5-hydroxy-6R-methyl-1R,3,7S-tris(3-methyl-2-butenyl)-5S-(2-methyl-1-oxopropyl)-6R-(4-methyl-3-pentenyl)-bicyclo[3.3.1]non-3-ene-2,9 dione]
IC50: 2.5 µM
